The values that follow come from article PMC10145437, “Pd(II) and Pt(II) Trinuclear Chelates with Spermidine: Selective Anticancer Activity towards TNBC-Sensitive and -Resistant to Cisplatin” (Pharmaceutics, 2023).

For assay [1], the system named is MDA-MB-231/R cells (cisplatin-resistant). The assay can be described thus: MTT assay (cell viability). It is filed as cell-based, human. The settings on record: for IC50: cell viability, MTT assay, n = 4. On the procedure:
(§1) The cells were harvested upon the addition of trypsin/EDTA solution, seeded in 96-well plates (1.5 × 10^4 cells/cm^2) and incubated at 37 °C. After allowing the cells to adhere for 24 h, the growth medium was replaced with the growth medium containing Pd3Spd2 (1–200 µM) or Pt3Spd2 (1–200 µM).
(§2) After each incubation period (24, 48 and 72 h), the cell viability was evaluated by the MTT [33] method. Briefly, a MTT solution (0.5 mg/mL in PBS) was added to each well after carefully removing the medium and allowed to incubate for 3 h at 37 °C; after which, the MTT was aspirated and, in order to dissolve the formazan crystals, 100 µL of DMSO were added. The optical density was measured at 570 nm.
(§3) Data are expressed as the mean ± standard error of the mean (SEM). GraphPad Prism 7 Software (San Diego, CA, USA) was used, and the statistical analysis was performed using the two-tailed Student’s t-test. The half-maximal inhibitory concentration values (IC50) were calculated by interpolation from the nonlinear regression curves obtained from cell proliferation/cytotoxicity data using “log(inhibitor) versus the normalized response–variable slope equation”. A p-value lower than 0.05 was considered statistically significant.
A general note: Tetrazolium assays rely on reduction of a dye to a coloured formazan, in cell work by metabolically active cells.

Assay [2] concerns MDA-MB-231 cells. The assay can be described thus: MTT assay (cell viability). It is filed as cell-based, human. The conditions noted are these: n = 4. Here is the method:
as §1, §2, §3

Assay [3] deals with MDA-MB-231/R cells (cisplatin-resistant). The assay can be described thus: Cell proliferation evaluation (label-free image cell counting). It is filed as cell-based, human. The conditions noted are these: for IC50: suppression of cell proliferation, n = 4; for Resistance Index: IC50 MDA-MB-231/R divided by IC50 MDA-MB-231, cell proliferation assay; for concentration of maximum suppression of cell proliferation: MDA-MB-231/R. Here is the method: (§4) The human TNBC MDA-MB-231 cell line (ATCC HTB-26) and the non-cancerous breast cell line MCF-12A (ATCC CRL-10782) were purchased from ATCC (Manassas, VA, USA). DMEM-HG cell growth medium supplemented with 10% (v/v) FBS was used to culture breast cancer cells. To establish a cisplatin-resistant cell strain, MDA-MB-231 cells were continuously treated with increasing concentrations of cisplatin (up to 2 µM) during a period of 6 months. When a consistent cell growth rate in the presence of cisplatin was achieved, these cells were named MDA-MB-231/R and stocked to assure the consistency of the phenotype for future use and experiments. All posterior experiments were performed within 10 passages to maintain the resistance while routinely growing the MDA-MB-231/R cell line in a cell culture medium without the addition of cisplatin. MCF-12A cells were cultured in DMEM/F12 medium supplemented with 100 ng/mL cholera toxin, 0.01 mg/mL bovine insulin, 20 ng/mL hEGF, 500 ng/mL hydrocortisone and 5% (v/v) horse serum. Cells were grown in monolayers in a sterile environment at 37 °C with a 5% CO2 humidified atmosphere. Under these conditions, the population doubling time was 25.5 ± 0.9 h and 30.6 ± 1.1 h for MDA-MB-231 and MDA-MB-231/R cells, respectively, and 20.6 ± 3.1 h for MCF-12A cells. The cell cultures were routinely screened for mycoplasma contamination, yielding negative results.
(§5) Cells were seeded in 96-well microplates at the cell density 1.5 × 10^4 cells/cm^2 (final volume 200 µL/well) and left 24 h to attach. Afterwards, the growth medium was replaced with the growth medium containing cisplatin (0.1–200 µM), Pd3Spd2 (0.3–200 µM), Pt3Spd2 (0.3–100 µM) and Pd2Spm (0.3–200 µM).
(§6) Cell proliferation was monitored with the direct image acquisition of cells on microplates at 0, 24, 48 and 72 h post-addition of the tested compounds using a LionheartFX automated microscope (BioTek, Winooski, VT, USA). Label-free kinetic 4× images were acquired and processed using Gen 5 Image Analysis software (BioTek, Winooski, VT, USA). Individual cells per image were identified and counted, and normalized cell growth (%) was calculated using the following formula: Ct=Number of Treated Cellst−Number of Treated Cells0/Number of Untreated Cellst−Number of Untreated Cells0×100 where C(t) is the percent of net cell growth over time, Number of Treated Cells(t) is the count of cells treated with drug at each time point, Number of Treated Cells(0) is the count cells treated with drug at time 0 h, Number of Untreated Cells(t) is the count of untreated (control) cells at each time point and Number of Untreated Cells(0) is the count of untreated (control) cells at time 0 h.
as §3

The test system of assay [4] is MDA-MB-231 cells. The assay is described as above. The conditions noted are these: for concentration of maximum suppression of cell proliferation: MDA-MB-231, 48 h. It is filed as cell-based, human. Here is the method: as §4, §5, §6, §3
For assay [5], the system named is MCF-12A cells (non-cancerous breast cells). The description is as above. It is filed as cell-based, human. The conditions noted are these: for Selectivity Index for MDA-MB-231/R: IC50 MCF-12A divided by IC50 MDA-MB-231/R; for IC50: suppression of cell proliferation, n = 4, read-out: IC50 against MCF-12A cells. Here is the method: as §4, §5, §6, §3
The subject of the next assay is sarcoma. Details: method as in earlier work. The conditions noted are these: cited from earlier work.
The subject of a further assay is leukemic P388 cells. Details: method as in doi:10.1016/j.ccr.2016.02.001. The settings on record: cited from earlier work.
[6] abbreviates: suppression of cell proliferation, 24 h incubation, n = 4, read-out: MDA-MB-231 IC50.
Setting [7] is: suppression of cell proliferation, 48 h incubation, n = 4, read-out: MDA-MB-231 IC50.
Setting [8] is: suppression of cell proliferation, 72 h incubation, n = 4, read-out: MDA-MB-231 IC50.
Where [9] appears, read: IC50 MCF-12A divided by IC50 MDA-MB-231, 48 h.

Where two headings read alike, the source gives them in different places.

In the case of `NCCCCNCCCN.NCCCCNCCCN.[Cl][Pt][Cl].[Cl][Pt][Cl].[Cl][Pt][Cl]` [Pt3Spd2], the IC50 in assay [1] (24 h incubation) was more than 100 µM; in assay [1] (48 h incubation), 67.9 µM; in assay [1] (72 h incubation) it was more than 100 µM; in the assay with MDA-MB-231 cells [2] (24 h incubation), more than 100 µM; with MDA-MB-231 cells [2] (48 h incubation) it was more than 100 µM; in the assay with MDA-MB-231 cells [2] (72 h incubation) it was more than 100 µM. For the same molecule, the concentration for half-maximal inhibition (IC50) was more than 100 µM in assay [3] (24 h incubation); more than 100 µM in assay [3] (48 h incubation); more than 100 µM in assay [3] (72 h incubation); more than 100 µM with MDA-MB-231 cells [4] (cell proliferation, depending on the incubation period (24, 48, 72 h), read-out: IC50 in MDA-MB-231 cells, over all incubation periods); more than 100 µM with MDA-MB-231 cells [4] (setting [6]); more than 100 µM in the assay with MDA-MB-231 cells [4] (setting [7]). The IC50 with MDA-MB-231 cells [4] (setting [8]) was more than 100 µM. Also, the “reduction of cell proliferation” value in the assay with MDA-MB-231 cells [4] (MDA-MB-231, only with concentrations above 100 μM) is on record as “up to 25%”.
Regarding `NCCCCNCCCN.NCCCCNCCCN.[Cl][Pd][Cl].[Cl][Pd][Cl].[Cl][Pd][Cl]` [Pd3Spd2], the “resistance index (abstract summary)” value in assay [1] (MDA-MB-231/R versus MDA-MB-231, over assays and incubation times) is listed as “lower than 2.3”. Also, the IC50 came out at 9.24 µM in assay [1] (24 h incubation); 10.6 µM in assay [1] (48 h incubation); 11.4 µM in assay [1] (72 h incubation); 8.99 µM with MDA-MB-231 cells [2] (24 h incubation); 4.65 µM in the assay on MDA-MB-231 cells [2] (48 h incubation); 6.12 µM with MDA-MB-231 cells [2] (72 h incubation). Besides, the IC50 amounted to 66.3 µM in assay [5] (24 h incubation); 53 µM in assay [5] (48 h incubation); 49.7 µM in assay [5] (72 h incubation); 13.3 µM in assay [3] (24 h incubation); 10.6 µM in assay [3] (48 h incubation); 10.8 µM in assay [3] (72 h incubation). The half-inhibitory concentration (IC50) in the assay with MDA-MB-231 cells [4] (setting [6]) stood at 8.35 µM; in the assay on MDA-MB-231 cells [4] (setting [7]), 8.44 µM; in the assay on MDA-MB-231 cells [4] (setting [8]), 7.92 µM. Besides, the “Selectivity Index for MDA-MB-231” value in assay [5] (IC50 MCF-12A divided by IC50 MDA-MB-231, 24 h) amounted to 7.94; in assay [5] (setting [9]) it was 6.28; in assay [5] (IC50 MCF-12A divided by IC50 MDA-MB-231, 72 h), 6.28. The entries for the “Selectivity Index for MDA-MB-231/R” value in assay [5] (48 h) and in assay [5] (72 h) were 4.99 and 4.59, respectively. Moreover, the “selectivity index for MDA-MB-231 cells (sensitive TNBC), over incubation times” value in assay [5] (MCF-12A versus MDA-MB-231, depending on the time of incubation (24-72 h)) is recorded as more than 6.28. In assay [5] (MCF-12A versus MDA-MB-231/R, depending on the time of incubation (24-72 h)), the “selectivity index for MDA-MB-231/R cells (resistant TNBC), over incubation times” value was more than 4.59. Moreover, the “Resistance Index” value in assay [3] (24 h) came out at 1.6; in assay [3] (48 h), 1.3; in assay [3] (72 h), 1.4. Besides, the “concentration of maximum suppression of cell proliferation” value (“concentration … of cell proliferation” for short) (in assay [3] (48 h); in the assay on MDA-MB-231 cells [4]) was 30 µM each time. In addition, the “concentrations that suppressed cell proliferation” value with MDA-MB-231 cells [4] (MDA-MB-231, 24-72 h, concentration-dependent) is “above 1 μM”.
Regarding `N.N.[Cl][Pt][Cl]` [cisplatin, cis-dichlorodiammine platinum(II)], the “Selectivity Index for MDA-MB-231” value in assay [5] (setting [9]) stood at 1. The figures for the IC50 (in assay [5] (48 h incubation); in assay [3] (48 h incubation); in the assay on MDA-MB-231 cells [4] (setting [7])) were 1 µM, 32.4 µM and 1 µM, respectively. In addition, the “concentration … of cell proliferation” value in assay [3] (48 h) stood at 200 µM; in the assay on MDA-MB-231 cells [4], 30 µM.
Take `O=[N+]([O-])[O-].O=[N+]([O-])[O-].[Pd+2].c1ccc(-c2ccccn2)nc1` [Pd(bpy)(ONO2)2]: the “antitumor activity against sarcoma” value in the assay with sarcoma is “effective antitumor agent”. Further, the “activity towards leukemic P388 cells” value with leukemic P388 cells was “inactive”.
Take `NCCCNCCCCNCCCN.[Cl][Pd][Cl].[Cl][Pd][Cl]` [Pd2Spm, reference compound]: the “concentrations required to suppress/modify MCF-12A cell proliferation” value in assay [5] (MCF-12A healthy breast cells, 48 h) is listed as “above 40 μM”. The “suppression of MCF-12A cell proliferation” value in assay [5] (MCF-12A, for 100 μM, 48 h) is reported as “up to 60%”. Further, the half-maximal inhibitory concentration (IC50) was approximately 90 µM in assay [5] (48 h incubation), 11.6 µM in assay [3] (48 h incubation) and 7.9 µM with MDA-MB-231 cells [4] (setting [7]). Besides, the “concentration … of cell proliferation” value (in assay [3] (48 h); with MDA-MB-231 cells [4]) was 30 µM in each case.

Broadly, the IC50 is the concentration that gives 50% inhibition.
